Among the data in patent US11279735B2, “Cyclic peptide antibiotics” (priority 2017, dated 2022) are MIC values, retold here.

This experiment has as its system Escherichia coli (E. coli) strain CFT073 ATCC 700928. The class given is cell-based. As for the experimental part:
In vitro antimicrobial activity of each compound was determined by measuring minimal inhibitor concentrations (MICs) using the broth micro-dilution technique as approved by the Clinical and Laboratory Standards Institute (CLSI) (Methods for Dilution Antimicrobial Susceptibility Tests for Bacteria that Grow Aerobically; Approved Standard—Eighth Edition. CLSI document M07-A8. Wayne, Pa.: Clinical and Laboratroy Standards; 2009). Antibacterial activity was measure against Escherichia coli (E. coli) strain CFT073 ATCC 700928, which is a clinically relevant Gram-negative strain. Cells were inoculated onto plates of Mueller Hinton Agar and grown at 37° C. for 16-18 hours. Inocula suspensions were prepared by scraping cells into 1 mL of testing media (Mueller Hinton II cation adjusted Broth supplemented with 0.002% v/v Tween-80) and diluting to a final OD600 nm of 0.01.
Test compounds were prepared in DMSO at a concentration of 100 uM The compounds were tested under several different dilution formats and the data are reported in Tables 6, 7 and 8. In protocol 1, the compound stocks were diluted into testing media at a concentration of 64 μg/ml and serial 2-fold dilutions were made in the same media, in 96-well U bottom microtiter dishes, for a total of 10 compound concentrations. In protocol 2, the compound stocks were diluted into testing media at a concentration of 4 μg/mL and serial 2-fold dilutions were made in the same media, in 96-well U bottom microtiter dishes, for a total of 10 compound concentrations. In protocol 3, compound stocks were diluted into testing media at a concentration of 0.5 μg/mL, with serial 2-fold dilutions conducted as described above. In protocol 4, compound stocks were diluted into testing media at a concentration of 0.13 μg/mL, with serial 2-fold dilutions conducted as described above. Inocula suspensions were added to the 2-fold serial dilutions of test compounds to a final density of OD OD600 nm of 0.0005 and incubated at 35° C. for 22 hours.

By MIC is commonly meant the lowest concentration found to suppress growth. A higher MIC goes with weaker potency.

Each structure is given as a SMILES string. Values after ≈ are worked out from the molar mass of the structure shown. Read-outs that look alike come from different tables or passages of the source.

`CCCCCCCCCC[C@H]1OC(=O)CNC(=O)[C@H](CO)NC(=O)[C@H](CN)NC(=O)[C@H]([C@H](C)CC)NC(=O)[C@H](CC(C)C)N(C)C(=O)[C@@H]1C` [Example 12, (6S,9S,12S,15S,18R,19R)-9-(aminomethyl)-19-decyl-6-(hydroxymethyl)-15-isobutyl-16,18-dimethyl-12-[(1R)-1-methylpropyl]-1-oxa-4,7,10,13,16-pentazacyclononadecane-2,5,8,11,14,17-hexone] showed an MIC (ATCC 700928, 22 h) of 4.7 µM (≈ 3.28 µg/mL).
`CCCCCC[C@H]1OC(=O)CNC(=O)[C@H](CCO)NC(=O)[C@H](CN)NC(=O)[C@H]([C@H](C)CC)NC(=O)[C@H](CC(C)C)N(C)C(=O)[C@@H]1C` [Example 13, (6S,9S,12S,15S,18R,19R)-9-(aminomethyl)-19-hexyl-6-(2-hydroxyethyl)-15-isobutyl-16,18-dimethyl-12-[(1R)-1-methylpropyl]-1-oxa-4,7,10,13,16-pentazacyclononadecane-2,5,8,11,14,17-hexone]: the MIC (ATCC 700928, 22 h) was found to be 50 µM (≈ 32.7 µg/mL).
`CCCCCCCCCC[C@H]1OC(=O)CNC(=O)[C@H]([C@H](C)O)NC(=O)[C@H](CN)NC(=O)[C@H]([C@H](C)CC)NC(=O)[C@H](CCC)N(C)C(=O)[C@@H]1C` [Example 14, (6S,9S,12S,15S,18R,19R)-9-(aminomethyl)-19-decyl-6-[(1S)-1-hydroxyethyl]-16,18-dimethyl-12-[(1R)-1-methylpropyl]-15-propyl-1-oxa-4,7,10,13,16-pentazacyclononadecane-2,5,8,11,14,17-hexone] displayed an MIC (ATCC 700928, 22 h) of 3.1 µM (≈ 2.16 µg/mL).
Still for that read-out and setting: to `CCCCCCCCCC[C@H]1OC(=O)CNC(=O)[C@H]([C@H](C)O)NC(=O)[C@H](CN)NC(=O)[C@H]([C@H](C)CC)NC(=O)[C@H](CCC(C)C)N(C)C(=O)[C@@H]1C` [Example 15, (6S,9S,12S,15S,18R,19R)-9-(aminomethyl)-19-decyl-6-[(1S)-1-hydroxyethyl]-15-isopentyl-16,18-dimethyl-12-[(1R)-1-methylpropyl]-1-oxa-4,7,10,13,16-pentazacyclononadecane-2,5,8,11,14,17-hexone] belongs 6.3 µM (≈ 4.57 µg/mL); to `CCCCCCCCCC[C@H]1OC(=O)CNC(=O)[C@H]([C@H](C)O)NC(=O)[C@H](CN)NC(=O)[C@H]([C@H](C)CC)NC(=O)[C@H](CC2CCC2)N(C)C(=O)[C@@H]1C` [Example 16, (6S,9S,12S,15S,18R,19R)-9-(aminomethyl)-15-(cyclobutylmethyl)-19-decyl-6-[(1S)-1-hydroxyethyl]-16,18-dimethyl-12-[(1R)-1-methylpropyl]-1-oxa-4,7,10,13,16-pentazacyclononadecane-2,5,8,11,14,17-hexone], 6.3 µM (≈ 4.55 µg/mL).
In turn, `CCCCCCCCCC[C@H]1OC(=O)CNC(=O)[C@H](CO)NC(=O)[C@H](CO)NC(=O)[C@H]([C@@H](C)CC)NC(=O)[C@H](CC(C)C)N(C)C(=O)[C@@H]1C` [Example 18, (6S,9S,12S,15S,18R,19R)-19-decyl-6,9-bis(hydroxymethyl)-15-isobutyl-16,18-dimethyl-12-[(1S)-1-methylpropyl]-1-oxa-4,7,10,13,16-pentazacyclononadecane-2,5,8,11,14,17-hexone] yielded an MIC (E. coli CFT073 ATCC 700928, Mueller Hinton II cation adjusted Broth with 0.002% v/v Tween-80, 35° C. for 22 hours, lowest concentration that completely prevented bacterial growth) of 19 µM (≈ 13.3 µg/mL).
`CCCCCCCCCC[C@H]1OC(=O)CNC(=O)[C@H](CN)NC(=O)[C@H](CO)NC(=O)[C@H]([C@@H](C)CC)NC(=O)[C@H](CC(C)C)N(C)C(=O)[C@@H]1C` [Example 19, (6S,9S,12S,15S,18R,19R)-6-(aminomethyl)-19-decyl-9-(hydroxymethyl)-15-isobutyl-16,18-dimethyl-12-[(1S)-1-methylpropyl]-1-oxa-4,7,10,13,16-pentazacyclononadecane-2,5,8,11,14,17-hexone] displayed an MIC (ATCC 700928, 22 h) of 25 µM (≈ 17.4 µg/mL).
Where the note is “ATCC 700928, 22 h”, `CCCCCCCCCC[C@H]1OC(=O)CNC(=O)[C@H](CCN)NC(=O)[C@H](CO)NC(=O)[C@H]([C@@H](C)CC)NC(=O)[C@H](CC(C)C)N(C)C(=O)[C@@H]1C` [Example 20, (6S,9S,12S,15S,18R,19R)-6-(2-aminoethyl)-19-decyl-9-(hydroxymethyl)-15-isobutyl-16,18-dimethyl-12-[(1S)-1-methylpropyl]-1-oxa-4,7,10,13,16-pentazacyclononadecane-2,5,8,11,14,17-hexone] came in with an MIC of 50 µM (≈ 35.5 µg/mL).
On the same count and under the same terms, with `CCCCCCCCCC[C@H]1OC(=O)CNC(=O)[C@H](C(C)(C)O)NC(=O)[C@H](CO)NC(=O)[C@H]([C@@H](C)CC)NC(=O)[C@H](CC(C)C)N(C)C(=O)[C@@H]1C` [Example 21, (6S,9S,12S,15S,18R,19R)-19-decyl-9-(hydroxymethyl)-6-(1-hydroxy-1-methyl-ethyl)-15-isobutyl-16,18-dimethyl-12-[(1S)-1-methylpropyl]-1-oxa-4,7,10,13,16-pentazacyclononadecane-2,5,8,11,14,17-hexone] the figure was 50 µM (≈ 36.3 µg/mL).
As to `CCCCCCCCCC[C@H]1OC(=O)CNC(=O)[C@H]([C@H](C)O)NC(=O)[C@H](CO)NC(=O)[C@H]([C@@H](C)CC)NC(=O)[C@H](CC(C)C)N(C)C(=O)[C@@H]1C` [Example 22, (6S,9S,12S,15S,18R,19R)-19-decyl-6-[(1S)-1-hydroxyethyl]-9-(hydroxymethyl)-15-isobutyl-16,18-dimethyl-12-[(1S)-1-methylpropyl]-1-oxa-4,7,10,13,16-pentazacyclononadecane-2,5,8,11,14,17-hexone], the MIC (ATCC 700928, 22 h) was found to be 13 µM (≈ 9.26 µg/mL).
The same measure, in the same setting: to `CCCCCCCCCC[C@H]1OC(=O)CNC(=O)[C@H]([C@H](C)O)NC(=O)[C@H](CN)NC(=O)[C@H]([C@@H](C)CC)NC(=O)[C@H](CC(C)C)N(C)C(=O)[C@@H]1C` [Example 23, (6S,9S,12S,15S,18R,19R)-9-(aminomethyl)-19-decyl-6-[(1S)-1-hydroxyethyl]-15-isobutyl-16,18-dimethyl-12-[(1S)-1-methylpropyl]-1-oxa-4,7,10,13,16-pentazacyclononadecane-2,5,8,11,14,17-hexone] belongs 3.1 µM (≈ 2.2 µg/mL).
Under “ATCC 700928, 22 h”, `CCCCCCCCCC[C@H]1OC(=O)CNC(=O)[C@H](CC)NC(=O)[C@H](CO)NC(=O)[C@H]([C@@H](C)CC)NC(=O)[C@H](CC(C)C)N(C)C(=O)[C@@H]1C` [Example 24, (6S,9S,12S,15S,18R,19R)-19-decyl-16-ethyl-9-(hydroxymethyl)-15-isobutyl-16,18-dimethyl-12-[(1S)-1-methylpropyl]-1-oxa-4,7,10,13,16-pentazacyclononadecane-2,5,8,11,14,17-hexone] had an MIC of 13 µM (≈ 9.05 µg/mL).
On the same count and under the same terms, to `CCCCCCCCCC[C@H]1OC(=O)CNC(=O)[C@H]([C@H](C)O)NC(=O)[C@H](CCN)NC(=O)[C@H]([C@@H](C)CC)NC(=O)[C@H](CC(C)C)N(C)C(=O)[C@@H]1C` [Example 25, (6S,9S,12S,15S,18R,19R)-9-(2-aminoethyl)-19-decyl-6-[(1S)-1-hydroxyethyl]-15-isobutyl-16,18-dimethyl-12-[(1S)-1-methylpropyl]-1-oxa-4,7,10,13,16-pentazacyclononadecane-2,5,8,11,14,17-hexone] belongs 25 µM (≈ 18.1 µg/mL).
Turning to `CCCCCCCCCC[C@H]1OC(=O)CNC(=O)[C@H]([C@H](C)O)NC(=O)[C@H](CNC(=N)N)NC(=O)[C@H]([C@@H](C)CC)NC(=O)[C@H](CC(C)C)N(C)C(=O)[C@@H]1C` [Example 26, 1-[[(6S,9S,12S,15S,18R,19R)-19-decyl-6-[(1S)-1-hydroxyethyl]-15-isobutyl-16,18-dimethyl-12-[(1S)-1-methylpropyl]-2,5,8,11,14,17-hexaoxo-1-oxa-4,7,10,13,16-pentazacyclononadec-9-yl]methyl]guanidine], the MIC (ATCC 700928, 22 h) came to 50 µM (≈ 37.6 µg/mL).
Same read-out and setting: to `CCCCCCCCCC[C@H]1OC(=O)CNC(=O)[C@H](CCO)NC(=O)[C@H](CO)NC(=O)[C@H]([C@@H](C)CC)NC(=O)[C@H](CC(C)C)N(C)C(=O)[C@@H]1C` [Example 27, (6S,9S,12S,15S,18R,19R)-19-decyl-6-(2-hydroxyethyl)-9-(hydroxymethyl)-15-isobutyl-16,18-dimethyl-12-[(1S)-1-methylpropyl]-1-oxa-4,7,10,13,16-pentazacyclononadecane-2,5,8,11,14,17-hexone] belongs 13 µM (≈ 9.26 µg/mL); to `CCCCCCCCCC[C@H]1OC(=O)CNC(=O)[C@H](Cc2c[nH]cn2)NC(=O)[C@H](CO)NC(=O)[C@H]([C@@H](C)CC)NC(=O)[C@H](CC(C)C)N(C)C(=O)[C@@H]1C` [Example 29, (6S,9S,12S,15S,18R,19R)-19-decyl-9-(hydroxymethyl)-6-(1H-imidazol-4-ylmethyl)-15-isobutyl-16,18-dimethyl-12-[(1S)-1-methylpropyl]-1-oxa-4,7,10,13,16-pentazacyclononadecane-2,5,8,11,14,17-hexone], 13 µM (≈ 9.72 µg/mL); to `CCCCCCCCCC[C@H]1OC(=O)CNC(=O)[C@H](C)NC(=O)[C@H](CO)NC(=O)[C@H]([C@@H](C)CC)NC(=O)[C@H](CC(C)C)N(C)C(=O)[C@@H]1C` [Example 30, (6S,9S,12S,15S,18R,19R)-19-decyl-9-(hydroxymethyl)-15-isobutyl-6,16,18-trimethyl-12-[(1S)-1-methylpropyl]-1-oxa-4,7,10,13,16-pentazacyclononadecane-2,5,8,11,14,17-hexone], 13 µM (≈ 8.86 µg/mL).
